Values of other authors in US6916479B2, “Compositions containing an antifungal and a phospholipid” (Janssen Pharmaceutica N.V., priority 1997, dated 2005).

Conditions: prior art medicated shampoo

Row | Structure (SMILES) | number of patients not responding to particular medicated shampoo
1 | S=[Se]=S [selenium sulfide] | up to 40%
2 | CC(=O)N1CCN(c2ccc(OCC3COC(Cn4ccnc4)(c4ccc(Cl)cc4Cl)O3)cc2)CC1 (centres unmarked) [ketoconazole] | up to 30%
